# Results from patent US8664271B2, “Stabilized leukotriene B4 (LTB4) agent pharmaceutical formulation” (LTB4 Sweden AB, priority 2004, dated 2014).
# Key:
# [1] = Forced degradation of ethanolic solutions of LTB4 (acid form and Na salt); type: physicochemical
# Method: The ethanolic solution of LTB4 (acid form) (EtOH/water, 95/5) obtained from the manufacturer (Cascade Biochem, UK) was diluted with EtOH/water, 95/5 to generate ethanolic solutions of LTB4 (acid form) at 9 and 0.9 mg/ml. Ethanolic solutions of the sodium salt of LTB4 at 9 and 0.9 mg/ml were obtained by adding 1.05 equivalent of sodium hydroxide. Solutions of the sodium salt of LTB4 at the concentration of 9 and 0.9 mg/ml in 75/25 EtOH/10 mM glycine in water at pH 10.5 (sodium hydroxide), were obtained by mixing 3 volumes of solutions of the sodium salt of LTB4 at 12 and 1.2 mg/ml in EtOH/water, 95/5 with 1 volume of 40 mM glycine buffer at pH 10.5. Solutions were dispensed in 2 ml vials for storage under air in the dark at −80° C. and 40±5° C. for 17 months prior to reverse phase HPLC analysis of LTB4 and impurities as described in Example 1.
# [2] = Pharmacokinetics of LTB4 in rats after i.v., i.j. and s.c. administration (plasma ELISA); type: in vivo, female Sprague-Dawley rats; conditions: rat
# Method: In this example, the pharmacokinetics of LTB4 in rats following administration by three distinct routes, intravenous (i.v.), intra-jejunal (i.j.) and sub-cutaneous (s.c.) was investigated.
# Three groups of three female Sprague-Dawley rats (weighing ˜250 g) were used; animals were fasted for 18 hours, anesthetised with ketamine/xylazine and their jugular veins were canulated to allow for repeated blood sampling. LTB4 was administered at the dose of 50 μg/kg at the dose volume of 4 ml/kg for all routes. Blood samples (0.5 ml/sample) where taken at 0, 0.5, 1, 2, 5, 15, 30, and 60 minutes following LTB4 injection. The blood samples where immediately anti-coagulated with EDTA and transferred into an ice-water bath until centrifugation for plasma isolation. Plasma samples were stored at −80° C. until assayed for LTB4 content using a commercial ELISA (Cayman Chemicals, Ann Arbor, Mich., USA). The i.v administration (15 sec. bolus) of LTB4 was done through the tail vein; for i.j. administration, LTB4 was directly injected in the jejunum after opening of the abdominal cavity; s.c. administration was done in the dorsal region.
compound,measurement,setting,value
"CCCCC/C=C\C[C@@H](O)/C=C/C=C/C=C\[C@@H](O)CCCC(=O)O [LTB4, 5S,12R-dihydroxy-6,8,10,14(Z,E,E,Z)-eicosatetrae-noic acid]",impurity level,"[1]; 0.9 mg/ml in 95/5 EtOH/water, 17 months at 40° C.",62 % of AUC
same,level of impurities,"[1]; 9.0 mg/ml in EtOH/water 95/5, 17 months at 40° C., AUC at 270 nm",100 % of AUC
same,time of maximum plasma LTB4 level,"[2]; i.j. administration, 50 μg/kg",5 min
same,time of return of LTB4 plasma levels to baseline,"[2]; i.j. administration, 50 μg/kg",30 min
same,"AUC for LTB4 plasma concentration, comparison of routes","[2]; i.v. injection, 50 μg/kg, compared with i.j. and s.c.",highest AUC
same,AUC for i.j. injection relative to that of i.v. LTB4,"[2]; in vivo, 50 ug/kg",35%
